Data as given in ChEMBL document CHEMBL5214930, “Discovery of the First Selective IDO2 Inhibitor As Novel Immunotherapeutic Avenues for Rheumatoid Arthritis” (J Med Chem, 2022).
The source made the active and inactive calls. No cut-off for these calls is given here.

Tests used:
[1] = target: Tryptophan 2,3-dioxygenase (Homo sapiens, UniProt P48775); test: Inhibition of TDO (unknown origin)
[2] = target: T1, Indoleamine 2,3-dioxygenase 2 (Homo sapiens, UniProt Q6ZQW0); test: Inhibition of IDO2 (unknown origin)
T1 sequence (Q6ZQW0 whole entry): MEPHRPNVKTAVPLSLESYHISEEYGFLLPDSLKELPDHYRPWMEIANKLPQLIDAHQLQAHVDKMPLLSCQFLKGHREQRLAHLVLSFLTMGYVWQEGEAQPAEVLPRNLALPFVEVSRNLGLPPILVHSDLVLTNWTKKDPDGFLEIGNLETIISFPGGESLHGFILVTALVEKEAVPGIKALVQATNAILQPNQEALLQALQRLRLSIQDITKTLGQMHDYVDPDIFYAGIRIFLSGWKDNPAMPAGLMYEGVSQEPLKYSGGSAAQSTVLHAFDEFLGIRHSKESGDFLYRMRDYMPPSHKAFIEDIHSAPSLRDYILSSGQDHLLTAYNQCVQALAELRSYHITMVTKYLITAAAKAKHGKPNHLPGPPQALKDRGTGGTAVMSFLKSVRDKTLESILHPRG

[3] = target: T2, Indoleamine 2,3-dioxygenase 1 (Homo sapiens, UniProt P14902); test: Inhibition of IDO1 (unknown origin)
Target sequence in this assay (P14902 whole entry): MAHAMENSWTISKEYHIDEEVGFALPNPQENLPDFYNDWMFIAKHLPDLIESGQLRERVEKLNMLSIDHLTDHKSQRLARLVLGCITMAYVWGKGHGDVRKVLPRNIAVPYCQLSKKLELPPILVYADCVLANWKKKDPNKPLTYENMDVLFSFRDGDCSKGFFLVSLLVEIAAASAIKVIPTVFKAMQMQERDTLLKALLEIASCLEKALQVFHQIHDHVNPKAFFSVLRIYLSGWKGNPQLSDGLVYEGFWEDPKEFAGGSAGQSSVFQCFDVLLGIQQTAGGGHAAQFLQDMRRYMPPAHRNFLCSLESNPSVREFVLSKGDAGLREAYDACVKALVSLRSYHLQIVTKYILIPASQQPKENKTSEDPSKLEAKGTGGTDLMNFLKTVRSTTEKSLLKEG

[4] = target: T3, Indoleamine 2,3-dioxygenase 2 (Homo sapiens) (UniProt Q6ZQW0); test: Inhibition of recombinant human IDO2 in HeLa cells at 100 nM relative to control; assay type: cell-based
T3 sequence (whole entry): T1 sequence (Q6ZQW0 whole entry)

[5] = target: T3, Indoleamine 2,3-dioxygenase 2 (Homo sapiens); test: Inhibition of recombinant human IDO2 in HeLa cells at […] relative to control; assay type: cell-based
[6] = target: T2, Indoleamine 2,3-dioxygenase 1; test: Inhibition of recombinant human IDO1 in HeLa cells at 100 nM relative to control; assay type: cell-based
Target sequence in this assay (P14902 whole entry, looked up): as the sequence (P14902 whole entry) above

[7] = system: HeLa; test: Antiproliferative activity against human HeLa cells; assay type: functional, cell-based
[8] = system: Mus musculus; test: Antiarthritic activity against collagen-induced arthritis DBA/1J mouse model assessed as paw swelling at 15 mg/kg, ip administered from day 57 to 74 post CFA injection and measured every 3 days; assay type: functional, organism-based; details: time 17.0 day
[9] = system: Mus musculus; test: Antiinflammatory activity against xylene-induced ear swelling ICR mouse model assessed as swelling inhibition ratio at 100 mg/kg, IG measured after 1 hr; assay type: functional; set-up: scale not given: the % may be the effect or the level left
[10] = system: Mus musculus; test: Antiinflammatory activity against xylene-induced ear swelling ICR mouse model assessed as swelling rate at 100 mg/kg, IG measured after 1 hr (Activity = 58.21 +/- 12.79%); assay type: functional
[11] = target: T2, Indoleamine 2,3-dioxygenase 1; test: Inhibition of human IDO1
Target sequence in this assay (P14902 whole entry): as above

[12] = target: T1, Indoleamine 2,3-dioxygenase 2; test: Inhibition of human IDO2

Chain of Tryptophan 2,3-dioxygenase (P48775 whole entry): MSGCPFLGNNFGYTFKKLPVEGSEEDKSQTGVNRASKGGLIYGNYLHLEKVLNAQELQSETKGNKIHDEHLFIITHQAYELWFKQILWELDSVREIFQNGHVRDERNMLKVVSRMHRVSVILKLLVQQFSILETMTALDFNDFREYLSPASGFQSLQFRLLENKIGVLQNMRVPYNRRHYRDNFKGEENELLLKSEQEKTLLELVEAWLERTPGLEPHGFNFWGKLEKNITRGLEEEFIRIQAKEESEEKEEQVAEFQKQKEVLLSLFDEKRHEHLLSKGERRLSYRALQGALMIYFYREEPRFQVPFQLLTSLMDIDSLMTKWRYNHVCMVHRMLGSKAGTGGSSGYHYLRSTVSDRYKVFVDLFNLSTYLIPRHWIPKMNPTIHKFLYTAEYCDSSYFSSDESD

| Compound | inhibition [4] [%] | inhibition [5] [%] | inhibition [6] [%] | EC50 [7] [µM] | further results |
| --- | --- | --- | --- | --- | --- |
| CN1CCN(c2ccc3nc4n(c(=O)c3c2)-c2ccc(F)cc2C4=O)CC1 |  |  |  |  | IC50 [1]: 0.76 µM; IC50 [2]: 18.4 µM; IC50 [3]: 0.5 µM |
| C[C@@H]1CCN(C(=O)CC#N)C[C@@H]1N(C)c1ncnc2[nH]ccc12 |  |  |  |  | Activity [8]: Active |
| COc1ccc2cc([C@H](C)C(=O)O)ccc2c1 [NAPROXEN] |  |  |  |  | Activity [9]: 45.29%; Activity [10]: 31.85% |
| O=C(NCc1cn(CCNc2nonc2/C(=N/O)NCc2ccccc2Br)nn1)c1ccccn1 |  | 2 | 5 | 4.35 |  |
| O=C(NCc1cn(CCNc2nonc2/C(=N/O)NCc2ccc(Br)cc2)nn1)c1ccc[nH]1 |  | 0 | 4 | 2.63 |  |
| O=C(NCc1cn(CCNc2nonc2/C(=N/O)NCc2ccccc2Br)nn1)c1ccc[nH]1 |  | 4 | 1 | 2.85 |  |

Further molecules by falling EC50 [7], results first:

| inhibition [4] [%] | inhibition [5] [%] | inhibition [6] [%] | EC50 [7] [µM] | Compound | further results |
| --- | --- | --- | --- | --- | --- |
| 5 | 30 | 4 | 1.38 | O=C(NCc1cn(CCNc2nonc2/C(=N/O)Nc2ccc(F)cc2)nn1)c1ccccn1 |  |
| 24 | 70 | 12 | 0.835 | O=C(NCc1cn(CCNc2nonc2/C(=N/O)NCc2cccc(Br)c2)nn1)c1ccc[nH]1 |  |
| 15 | 41 | 18 | 0.663 | Cc1ccc(Br)cc1N/C(=N\O)c1nonc1NCCn1cc(CNC(=O)c2ccccn2)nn1 |  |
| 14 | 61 | 20 | 0.611 | Cc1cc(Br)cc(N/C(=N\O)c2nonc2NCCn2cc(CNC(=O)c3ccccn3)nn2)c1 |  |
| 6 | 40 | 44 | 0.456 | O=C(NCc1cn(CCNc2nonc2/C(=N/O)Nc2ccc(F)c(C(F)(F)F)c2)nn1)c1ccccn1 |  |
| 16 | 38 | 52 | 0.234 | O=C(NCc1cn(CCNc2nonc2/C(=N/O)Nc2ccc(F)c(Cl)c2)nn1)c1ccccn1 |  |
| 39 | 61 | 72 | 0.129 | O=C(NCc1cn(CCNc2nonc2/C(=N/O)Nc2ccc(F)c(Br)c2)nn1)c1ccccn1 | IC50 [11]: 0.052 µM; Activity [9]: 36.94%; IC50 [12]: 0.387 µM; Activity [10]: 36.71% |
|  | 15 | 69 | 0.106 | O=C(NCc1cn(CCNc2nonc2/C(=N/O)Nc2cccc(Cl)c2)nn1)c1ccccn1 |  |
